The text below walks through data of patent US20250295815A1, “PORPHYRIN-HYDROPORPHYRIN COMPOUNDS, COMPOSITIONS COMPRISING THE SAME AND METHODS OF USE THEREOF” (North Carolina State University, priority 2021, published 2025).

Holding throughout (type): physicochemical
Data set [1] in a line: Dyad photophysical properties in toluene, excited at 405 nm. Conditions: for ext coeff (405 nm) / brightness (405 nm): at 405 nm; for ext coeff (405 nm) / FWHM / QY (x405) / abs max B / abs max Qx / abs max Qy / ext coeff (abs max B) / em max: room temperature; for ext coeff (405 nm): in M-1 cm-1 (unit assumed); for FWHM: emission peak; for FWHM / QY (x405) / em max: excited at 405 nm; for QY (x405): fluorescence quantum yield; for brightness (405 nm) / brightness (abs max): molar absorption coefficient x fluorescence quantum yield; for brightness (405 nm): in M⁻¹cm⁻¹; for brightness (abs max): at abs max. Details: ext coeff (abs max B) / brightness (abs max): unit not given here. On the procedure:
The photophysical properties of samples were tested in toluene at room temperature and excited at 405 nm.

Data set [2] is described as follows: Fluorescence emission spectra in toluene (FIG. 5-8). The conditions noted are these: for Brightness (molar absorption coefficient×fluorescence quantum yield): in M⁻¹cm⁻¹; for residual porphyrin emission in fluorescence spectrum: toluene, room temperature, FIG. 5, FIG. 6. On the procedure: Emission spectra were collected in toluene at room temperature. […] P5-C3 contains a more rigid linker between chlorin and porphyrin than in P3-C1, which results in greater spatial separation of the two components and lower energy transfer.
Brightness (molar absorption coefficient×fluorescence quantum yield): 84,700 (P3-C1), 13,900 (P5-C3).
Emission spectra were collected using 0.5 uM solutions in toluene. Brightness (molar absorption coefficient×fluorescence quantum yield): 19,900 (P11-BC3 meso), 45,100 (P11-BC1 beta).

A short description of data set [3]: Brightness of hydroporphyrin monomers vs. porphyrin-hydroporphyrin dyads at 405 nm excitation. On the procedure:
Brightness was calculated using an excitation wavelength of 405 nm for a hydroporphyrin monomer having an emission wavelength of approximately 660, 680, 715, or 800 nm and for a fluorescent compound including a porphyrin and a hydroporphyrin structurally similar to the hydroporphyrin monomer. Brightness was calculated as the product of the molar absorption coefficient at 405 nm and the fluorescence quantum yield in toluene at room temperature. Table 3 provides the emission wavelength of the hydroporphyrin monomer and the corresponding dyad, the brightness of the hydroporphyrin monomer excited at 405 nm, the brightness of the dyad excited at 405 nm, and the fold change in brightness of the hydroporphyrin monomer compared to the brightness of the dyad.

[4] abbreviates: FIG. 7, same sample concentration.

In the case of `COC(=O)c1ccc(-c2c3nc(cc4[nH]c(cc5nc(cc6[nH]c2cc6-c2ccc(CNC(=O)c6ccc(-c7c8nc(cc9ccc([nH]9)c(-c9c(C)cc(C)cc9C)c9nc(cc%10ccc7[nH]%10)C=C9)C=C8)cc6)cc2)CC5(C)C)cc4-c2ccccc2)C=C3)cc1` [Dyad P3-C1], in data set [1], the “ext coeff (405 nm)” value was 350,200, the FWHM came out at 18 nm, the “QY (x405)” value was determined as 0.24 and the “brightness (405 nm)” value is 84,723. Besides, in data set [1], the “brightness (abs max)” value is listed as 106,623, the “abs max B” value was determined as 410 nm, the “abs max Qx” value stood at 505 nm and the “abs max Qy” value was 652 nm. In data set [1], the “ext coeff (abs max B)” value is recorded as 440,633 and the em max turned out to be 656 nm. Also, the “Brightness (molar absorption coefficient×fluorescence quantum yield)” value in data set [2] (setting [4]) is on record as 84,700. In addition, the “residual porphyrin emission in fluorescence spectrum” value in data set [2] is given as “no residual emission from the porphyrin”.

Take `COC(=O)c1ccc(-c2c3nc(cc4ccc(cc5nc(cc6[nH]c2cc6C#Cc2ccc(CNC(=O)c6ccc(-c7c8nc(cc9ccc([nH]9)c(-c9c(C)cc(C)cc9C)c9nc(cc%10ccc7[nH]%10)C=C9)C=C8)cc6)cc2)CC5(C)C)[nH]4)C=C3)cc1` [Dyad P5-C3]: in data set [1], the “ext coeff (405 nm)” value was 171,800, the “QY (x405)” value was 0.08, the “brightness (405 nm)” value is listed as 13,934 and the “brightness (abs max)” value is given as 17,413. In data set [1], the “abs max B” value is listed as 409 nm, the “abs max Qx” value came out at 504 nm, the “abs max Qy” value is 657 nm and the “ext coeff (abs max B)” value is reported as 214,700. Also, the em max in data set [1] was found to be 659 nm. Moreover, in data set [2] (setting [4]), the “Brightness (molar absorption coefficient×fluorescence quantum yield)” value is on record as 13,900. Further, in data set [2], the “residual porphyrin emission in fluorescence spectrum” value is reported as “porphyrin emission is apparent”.

Turning to `COc1c2nc(cc3ccc([nH]3)c(-c3ccc(-c4c5nc(cc6ccc(cc7nc(cc8ccc4[nH]8)C=C7)[nH]6)C=C5)cc3)c3nc(cc4ccc1[nH]4)C(C)(C)C3)C(C)(C)C2` [Dyad P11-BC3], in data set [1], the “ext coeff (405 nm)” value is 118,100, the FWHM was determined as 15 nm, the “QY (x405)” value was 0.17 and the “brightness (405 nm)” value is reported as 19,871. For the same compound, in data set [1], the “brightness (abs max)” value is listed as 20,998, the “abs max B” value was 407 nm, the “abs max Qx” value came to 511 nm and the “abs max Qy” value came out at 714 nm. Besides, in data set [1], the “ext coeff (abs max B)” value is 124,800 and the em max is 714 nm. For the same compound, the fold change in data set [3] (brightness of dyad vs. corresponding hydroporphyrin monomer, 405 nm) is reported as 64.9. In data set [3] (emission peak narrowness), this compound showed an FWHM of 15 nm. Also, the “QY (x405)” value in data set [3] (fluorescence quantum yield in toluene at room temperature) turned out to be 0.17. Besides, the “ext coeff (405 nm)” value in data set [3] (molar absorption coefficient at 405 nm, in M-1 cm-1 (unit assumed)) was 118,100. Further, in data set [3] (product of molar absorption coefficient at 405 nm and fluorescence quantum yield, toluene, room temperature, in M⁻¹cm⁻¹), the “brightness (405 nm)” value is on record as 19,871. Besides, in data set [3] (toluene, room temperature), the “abs max B” value came to 407 nm and the em max came to 714 nm. Also, in data set [2] (FIG. 8, 0.5 uM solutions in toluene, meso vs. beta linkage), the “Brightness (molar absorption coefficient×fluorescence quantum yield)” value is reported as 19,900.
